Assay results: the NIST ThermoML archive (doi:10.1021/je030101n)

Assay: xn = mol fraction of the nth substance listed
Settings: 101.3 kPa, Liquid; for viscosity: Capillary tube (Ostwald / Ubbelohde) method; for mass density: Pycnometric method

Nc1ccccc1 [aniline] + CN(C)C=O
Settings	mass density, 298.15 K [kg/m3]	mass density, 303.15 K [kg/m3]	mass density, 308.15 K [kg/m3]	mass density, 313.15 K [kg/m3]	viscosity, 298.15 K [mPa·s]	viscosity, 303.15 K [mPa·s]	viscosity, 308.15 K [mPa·s]	viscosity, 313.15 K [mPa·s]
x2 = 0	1017.2	1012.9	1008.6	1004.2	3.69	3.19	2.8	2.42
x2 = 0.1293	1010.3	1006	1001.7	997.3	3.296	2.864	2.521	2.186
x2 = 0.2582	1005.8	1001.5	997.2	992.9	2.908	2.54	2.242	1.952
x2 = 0.3548	1000.5	996.2	991.9	987.6	2.621	2.298	2.034	1.779
x2 = 0.4642	993.9	989.5	985.1	980.7	2.3	2.025	1.8	1.583
x2 = 0.5537	987.6	983.2	978.9	974.5	2.04	1.803	1.611	1.423
x2 = 0.6614	978.8	974.3	969.8	965.3	1.731	1.543	1.387	1.237
x2 = 0.7558	969.2	964.8	960.4	955.9	1.466	1.319	1.194	1.079
x2 = 0.8302	961.4	957	952.6	948.1	1.257	1.145	1.044	0.954
x2 = 0.9123	952.3	947.7	943.1	938.4	1.038	0.955	0.88	0.819

N#Cc1ccccc1 [benzonitrile] + CN(C)C=O
Settings	mass density, 298.15 K [kg/m3]	mass density, 303.15 K [kg/m3]	mass density, 308.15 K [kg/m3]	mass density, 313.15 K [kg/m3]	viscosity, 298.15 K [mPa·s]	viscosity, 303.15 K [mPa·s]	viscosity, 308.15 K [mPa·s]	viscosity, 313.15 K [mPa·s]
x2 = 0	1000.9	996.4	991.9	987.2	1.171	1.126	1.068	1.001
x2 = 0.1335	995.4	990.9	986.4	981.7	1.17	1.124	1.064	0.99
x2 = 0.1981	992.7	988.2	983.7	979	1.169	1.119	1.056	0.985
x2 = 0.3191	987.4	982.9	978.4	973.8	1.152	1.097	1.033	0.963
x2 = 0.3873	984.3	979.8	975.3	970.6	1.134	1.078	1.015	0.948
x2 = 0.4907	979	974.5	970	965.3	1.099	1.042	0.98	0.918
x2 = 0.6061	972.2	967.7	963.2	958.5	1.049	0.992	0.932	0.875
x2 = 0.7176	965.2	960.6	956	951.2	0.992	0.936	0.879	0.825
x2 = 0.7997	959.6	955	950.4	945.6	0.943	0.889	0.834	0.781
x2 = 0.9209	950.6	946	941.4	936.5	0.862	0.811	0.761	0.715
